From patent publication US12398119B2, “Piperazine azaspiro derivatives” (PFIZER INC., priority 2018, dated 2025)
Where two headings read alike, the source gives them in different places.

Target: T1, Human M4 mAChR (Homo sapiens, UniProt P08173)
T1 construct: host or cells: HEK293 (Sor-L9 HEK293 human/M4/GloSensor Cell Clone Number 40)
T1 sequence (P08173 1-479): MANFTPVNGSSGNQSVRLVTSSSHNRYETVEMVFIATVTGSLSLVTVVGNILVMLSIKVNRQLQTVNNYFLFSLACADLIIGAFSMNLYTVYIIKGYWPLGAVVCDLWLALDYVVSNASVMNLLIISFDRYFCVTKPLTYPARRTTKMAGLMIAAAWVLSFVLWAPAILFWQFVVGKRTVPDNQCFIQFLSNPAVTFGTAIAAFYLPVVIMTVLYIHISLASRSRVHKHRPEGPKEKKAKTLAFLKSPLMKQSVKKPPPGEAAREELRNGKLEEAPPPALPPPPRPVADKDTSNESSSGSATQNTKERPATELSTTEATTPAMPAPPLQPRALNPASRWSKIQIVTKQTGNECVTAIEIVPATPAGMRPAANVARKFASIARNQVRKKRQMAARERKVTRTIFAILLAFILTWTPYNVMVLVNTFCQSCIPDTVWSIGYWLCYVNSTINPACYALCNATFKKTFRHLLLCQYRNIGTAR
Assay: Muscarinic hM4 Agonist GloSensor cAMP Assay
Type: cell-based
Method: Muscarinic hM4 Agonist GloSensor cAMP Assay Methods
Compounds were prepared in advance of the assay. Test compounds were solubilized in 100% dimethyl sulfoxide (DMSO, Sigma D8418) to a concentration of 30 mM. A 10-point intermediate dilution series using half log dilutions was created in 100% DMSO with a top concentration of 4 mM. The serially diluted compounds were spotted as 200 nL/well in a 384-well plate (Matrix Catalog Number 4325). The final compound concentration range in the assay was […] to 0.3 nM with a final DMSO concentration of 0.25%.
Human M4 mAChR expressing stable cell lines were generated using a parental HEK cell expressing the GloSensor construct (Promega Sor-L9 HEK293 human/M4/GloSensor Cell Clone Number 40). The cells were grown in 90% Dulbecco's Modified Eagle Medium (DMEM, Gibco 11960), 10% fetal bovine serum (FBS, Hyclone CH.30160-03), 1% Penicillin/Streptomycin (Gibco 15070-063), 500 µg/mL Geneticin (Gibco 10131-027), 200 µg/mL Hygromycin B (Invitrogen 10687-010) and 1% Glutamax (Thermo Fisher 35050061).
One day prior to assay, the cells were lifted using dissociation buffer (Gibco 13151-014) and spun in a centrifuge at 250 times gravity for 5 minutes at room temperature. Supernatant was removed and the cell pellet was resuspended in growth media to a concentration of […]. Cells were then added to white poly-d-lysine coated plates (Becton Dickinson 356661) as 40 μL per well (25,000 cells) and incubated overnight (20-24 hours) in a 37° C. humidified incubator with 5% carbon dioxide (C02).
The following day, culture media was removed from the cell plates and replaced with […] equilibration medium containing 88% CO2-independent medium (Invitrogen 18045088), 10% FBS and 2% GloSensor cAMP reagent (Promega E1291) that had been warmed to 37° C. Plates were then covered and incubated for 2 hours at room temperature while protected from light.
To the previously prepared serially diluted compound plates, 200 nL of 4 mM ACh (Sigma A2661, 10 μM final) or 200 nL of 100% DMSO (0.25% final) was added to the positive and negative control wells, respectively. Compound plates were then diluted by adding 16 μL of C02-independent media containing 10% FBS and an EC80 concentration of isoproterenol (Sigma 16504). Prior to compound testing, concentration response curves were run for isoproterenol to determine the EC80 concentration. At the end of the 2 hour equilibration, 10 µL was transferred from the compound plates to the cell plates. The cell plates were incubated an additional 7 minutes at room temperature and then read using a Multi-label EnVision plate reader (Perkin Elmer) for luminescence.
The raw data, expressed as relative light units, was analyzed using Activity Base (IDBS). The percent effect at each compound concentration was calculated based on and relative to the amount of cAMP produced by the positive and negative control wells contained on each assay plate. The positive control wells contained an EC100 concentration of ACh and the negative control wells contained only DMSO. The concentration and % effect values were fit using a four-parameter logistic dose response equation, and the concentration required for 50% effect (EC50) was determined as well as the maximum asymptote of the concentration response curve to define the efficacy.

[1] = Emax: maximum asymptote of concentration response curve, relative to ACh positive control (EC100) and DMSO, geometric mean, read-out: % maximum effect
[2] = HEK293 human/M4/GloSensor cells, EC80 isoproterenol, geometric mean, number of determinations in parentheses, read-out: EC50
[3] = enantiomers reported in footnotes to Table 1, number of determinations in parentheses, read-out: M4 EC50
[4] = enantiomers reported in footnotes to Table 1, number of determinations in parentheses, read-out: M4 Emax

| Emax [1] | EC50 [2] | EC50 [3] | Emax [4] | SMILES |
| --- | --- | --- | --- | --- |
| 58.5% | 17.3 nM | – | – | CCOC(=O)N1CC2(CCC(N3CCN(c4ncccc4-c4nccnc4C)CC3)C2)C1 (centres unmarked) [Example 15, ethyl 6-{4-[3-(3-methylpyrazin-2-yl)pyridin-2-yl]piperazin-1-yl}-2-azaspiro[3.4]octane-2-carboxylate] |
| 60.9% | 0.596 nM | – | – | CCOC(=O)N1CC2(CC[C@@H](N3CCN(c4ncccc4-c4cnn(CCCCC#N)c4)CC3)C2)C1 [Example 49, ethyl (6R)-6-(4-{3-[1-(4-cyanobutyl)-1H-pyrazol-4-yl]pyridin-2-yl}piperazin-1-yl)-2-azaspiro[3.4]octane-2-carboxylate] |
| 93.7% | 1.2 nM | – | – | CCOC(=O)N1CC2(CCC(N3CCN(c4ncccc4-c4cncnc4)CC3)C2)C1 (centres unmarked) [Example 14, ethyl 6-{4-[3-(pyrimidin-5-yl)pyridin-2-yl]piperazin-1-yl}-2-azaspiro[3.4]octane-2-carboxylate] |
| 46.4% | 1.6 nM | – | – | CCOC(=O)N1CC2(CC[C@@H](N3CCN(c4ncccc4-c4nncs4)CC3)C2)C1 [Example 5, ethyl (6R)-6-{4-[3-(1,3,4-thiadiazol-2-yl)pyridin-2-yl]piperazin-1-yl}-2-azaspiro[3.4]octane-2-carboxylate] |
| – | – | 268 nM | 52.7% | CCOC(=O)N1CC2(CCC(N3CCN(c4ncccc4-c4cnc(C#N)cn4)CC3)C2)C1 (single isomer, unassigned) [enantiomer of Example 41, ethyl 6-{4-[3-(5-cyanopyrazin-2-yl)pyridin-2-yl]piperazin-1-yl}-2-azaspiro[3.4]octane-2-carboxylate] |
| – | – | 201 nM | 74% | CCOC(=O)N1CC2(CCC(N3CCN(c4cccnc4OC(F)F)CC3)C2)C1 (single isomer, unassigned) [enantiomer of Example 19, ethyl 6-{4-[2-(difluoromethoxy)pyridin-3-yl]piperazin-1-yl}-2-azaspiro[3.4]octane-2-carboxylate] |
| 54.9% | 5.11 nM | – | – | CCOC(=O)N1CC2(CCC(N3CCN(c4ncccc4-c4ncco4)CC3)C2)C1 (centres unmarked) [Example 18, ethyl 6-{4-[3-(1,3-oxazol-2-yl)pyridin-2-yl]piperazin-1-yl}-2-azaspiro[3.4]octane-2-carboxylate] |
| 81.6% | 12 nM | – | – | CCOC(=O)N1CC2(CCC(N3CCN(c4ncccc4-c4ccc5nncn5c4)CC3)C2)C1 (centres unmarked) [Example 40, ethyl 6-{4-[3-([1,2,4]triazolo[4,3-a]pyridin-6-yl)pyridin-2-yl]piperazin-1-yl}-2-azaspiro[3.4]octane-2-carboxylate] |
| 47.7% | 425 nM | – | – | CCOC(=O)N1CC2(CC[C@H](N3CCN(c4ncccc4OC)CC3)C2)C1 [Example 7, ethyl (6S)-6-[4-(3-methoxypyridin-2-yl)piperazin-1-yl]-2-azaspiro[3.4]octane-2-carboxylate] |
| 87.2% | 2.17 nM | – | – | CCOC(=O)N1CC2(CC[C@@H](N3CCN(c4ncccc4-c4cscn4)CC3)C2)C1 [Example 4, ethyl (6R)-6-{4-[3-(1,3-thiazol-4-yl)pyridin-2-yl]piperazin-1-yl}-2-azaspiro[3.4]octane-2-carboxylate] |
| – | – | > 10000 nM | – | CCOC(=O)N1CC2(CCC(N3CCN(c4nccnc4OC)CC3)C2)C1 (single isomer, unassigned) [enantiomer of Example 27, ethyl 6-[4-(3-methoxypyrazin-2-yl)piperazin-1-yl]-2-azaspiro[3.4]octane-2-carboxylate] |
| 59.8% | 26.4 nM | – | – | CCOC(=O)N1CC2(CCC(N3CCN(c4ncc(F)cc4-c4cscn4)CC3)C2)C1 (single isomer, unassigned) [Example 26, ethyl 6-{4-[5-fluoro-3-(1,3-thiazol-4-yl)pyridin-2-yl]piperazin-1-yl}-2-azaspiro[3.4]octane-2-carboxylate] |
| 35.2% | 8.2 nM | – | – | CCOC(=O)N1CC2(CCC(N3CCN(c4ncccc4-c4cccnn4)CC3)C2)C1 (centres unmarked) [Example 45, ethyl 6-{4-[3-(pyridazin-3-yl)pyridin-2-yl]piperazin-1-yl}-2-azaspiro[3.4]octane-2-carboxylate] |
| 107% | < 0.074 nM | – | – | CCOC(=O)N1CC2(CCC(N3CCN(c4ncccc4C4CC4)CC3)C2)C1 (single isomer, unassigned) [Example 22, ethyl 6-[4-[3-cyclopropylpyridin-2-yl)piperazin-1-yl]-2-azaspiro[3.4]octane-2-carboxylate] |
| 98.7% | 2.23 nM | – | – | CCOC(=O)N1CC2(CC[C@@H](N3CCN(c4ncccc4-c4cnccn4)CC3)C2)C1 [Example 8, ethyl (6R)-6-{4-[3-(pyrazin-2-yl)pyridin-2-yl]piperazin-1-yl}-2-azaspiro[3.4]octane-2-carboxylate] |
| 24.7% | 6.1 nM | – | – | CCOC(=O)N1CC2(CCC(N3CCN(c4ncccc4-c4cncc(OC(F)F)c4)CC3)C2)C1 (centres unmarked) [Example 37, ethyl 6-{4-[5′-(difluoromethoxy)-3,3′-bipyridin-2-yl]piperazin-1-yl}-2-azaspiro[3.4]octane-2-carboxylate] |
| – | – | 3600 nM | 95.3% | CCOC(=O)N1CC2(CCC(N3CCN(c4cccnc4OC(F)(F)F)CC3)C2)C1 (single isomer, unassigned) [enantiomer of Example 20, ethyl 6-{4-[2-(trifluoromethoxy)pyridin-3-yl]piperazin-1-yl}-2-azaspiro[3.4]octane-2-carboxylate] |
| – | – | 347 nM | 72.3% | CCOC(=O)N1CC2(CCC(N3CCN(c4ncccc4-c4cnsn4)CC3)C2)C1 (single isomer, unassigned) [enantiomer of Example 34, ethyl 6-{4-[3-(1,2,5-thiadiazol-3-yl)pyridin-2-yl]piperazin-1-yl}-2-azaspiro[3.4]octane-2-carboxylate] |
| 97% | 1.75 nM | – | – | CCOC(=O)N1CC2(CCC(N3CCN(c4ncccc4-c4ccc(C#N)cc4)CC3)C2)C1 (centres unmarked) [Example 53, ethyl 6-(4-(3-(4-cyanophenyl)pyridin-2-yl)piperazin-1-yl)-2-azaspiro[3.4]octane-2-carboxylate] |
| – | – | 11.6 nM | 103% | CCOC(=O)N1CC2(CCC(N3CCN(c4ncccc4C4CC4)CC3)C2)C1 (single isomer, unassigned) [enantiomer of Example 22, ethyl 6-[4-(3-cyclopropylpyridin-2-yl)piperazin-1-yl]-2-azaspiro[3.4]octane-2-carboxylate] |
| 91.5% | 5.13 nM | – | – | CCOC(=O)N1CC2(CCC(N3CCN(c4cccnc4OCC(F)(F)F)CC3)C2)C1 (centres unmarked) [Example 10, ethyl 6-{4-[2-(2,2,2-trifluoroethoxy)pyridin-3-yl]piperazin-1-yl}-2-azaspiro[3.4]octane-2-carboxylate] |
